In patent US8299070B2, “Indole compounds and pharmaceutical use thereof” (Japan Tobacco Inc., priority 2009, dated 2012):

Molecular target: T1, hITK enzyme (FLAG-tagged full-length hITK) (Homo sapiens, UniProt Q08881)
T1 construct: strongly expressing FLAG-tagged full-length hITK in Sf9 cells; FLAG; made in house; host or cells: Sf9 insect cells (ITK); Escherichia coli (GST-SLP76 substrate)
T1 sequence (Q08881 1-620): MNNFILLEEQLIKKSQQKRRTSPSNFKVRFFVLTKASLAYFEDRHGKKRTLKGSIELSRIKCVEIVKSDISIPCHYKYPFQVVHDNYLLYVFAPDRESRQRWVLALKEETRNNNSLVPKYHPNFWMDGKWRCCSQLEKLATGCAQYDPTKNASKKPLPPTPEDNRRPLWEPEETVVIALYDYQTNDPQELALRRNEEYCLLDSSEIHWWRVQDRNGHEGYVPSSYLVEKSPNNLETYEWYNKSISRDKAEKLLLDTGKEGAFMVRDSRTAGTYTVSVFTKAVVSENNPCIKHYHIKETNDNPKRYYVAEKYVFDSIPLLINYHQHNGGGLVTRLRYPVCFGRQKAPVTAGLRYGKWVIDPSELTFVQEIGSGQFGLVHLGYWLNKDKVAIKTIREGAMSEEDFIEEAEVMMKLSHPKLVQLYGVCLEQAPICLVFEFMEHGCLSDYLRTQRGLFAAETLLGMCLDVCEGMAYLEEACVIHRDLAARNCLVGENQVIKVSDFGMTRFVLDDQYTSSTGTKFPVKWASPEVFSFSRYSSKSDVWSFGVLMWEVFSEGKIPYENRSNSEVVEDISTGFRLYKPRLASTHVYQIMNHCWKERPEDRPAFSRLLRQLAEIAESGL
Test: ITK inhibitory activity (HTRF kinase assay, biotinylated GST-SLP76 substrate)
Assay type: biochemical
Settings: IC50 calculated from the 2 test compound concentrations sandwiching 50% ITK inhibitory rate
Method in brief: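 Sf9-expressed hITK (50 ng/mL enzyme solution) reacted 10 min at RT in MOPS pH 7.0, 10 mmol/L MgCl2, 1 mmol/L DTT with E. coli SLP76 aa95–175 substrate; substrate solution held 100 µmol/L ATP (6 µmol/L for selected compounds). HTRF 665/620 ratio, blank-corrected; IC50 interpolated between two concentrations bracketing 50% inhibition.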

IC50	Structure (SMILES)
2 nM	CN(C(=O)CN1CCOC1=O)c1ccc2cc(-c3n[nH]c4c3CCC(C)(C)C4)[nH]c2c1 [Example 154]
9 nM	CO[C@H]1CN(CC(=O)N(C)c2ccc3cc(-c4n[nH]c5c4CCC(C)(C)C5)[nH]c3c2)C[C@H]1OC [Example 155]
< 1 nM	CN(C(=O)Cn1ccccc1=O)c1ccc2cc(-c3n[nH]c4c3CCC(C)(C)C4)[nH]c2c1 [Example 156]
1 nM	CN(C(=O)Cn1cccn1)c1ccc2cc(-c3n[nH]c4c3CCC(C)(C)C4)[nH]c2c1 [Example 157]
7 nM	CC(C)OC(CO)C(=O)N(C)c1ccc2cc(-c3n[nH]c4c3CCC(C)(C)C4)[nH]c2c1 (stereo not drawn) [Example 159]
5 nM	CC(=O)N1CCC[C@H]1C(=O)N(C)c1ccc2cc(-c3n[nH]c4c3CCC(C)(C)C4)[nH]c2c1 [Example 165]
1 nM	CC(=O)N1CCC[C@@H]1C(=O)N(C)c1ccc2cc(-c3n[nH]c4c3CCC(C)(C)C4)[nH]c2c1 [Example 166]
3 nM	CO[C@H](C)C(=O)N(C)c1ccc2cc(-c3n[nH]c4c3CCC(C)(C)C4)[nH]c2c1 [Example 168]
< 1 nM	CN(C(=O)CN1CC[C@@H](O)CC1=O)c1ccc2cc(-c3n[nH]c4c3CCC(C)(C)C4)[nH]c2c1 [Example 170]
1 nM	C[C@@H]1COCC(=O)N1CC(=O)N(C)c1ccc2cc(-c3n[nH]c4c3CCC(C)(C)C4)[nH]c2c1 [Example 171]
2 nM	C[C@H]1COCC(=O)N1CC(=O)N(C)c1ccc2cc(-c3n[nH]c4c3CCC(C)(C)C4)[nH]c2c1 [Example 172]
2 nM	CN(C(=O)CN1CCCC(C)(C)C1=O)c1ccc2cc(-c3n[nH]c4c3CCC(C)(C)C4)[nH]c2c1 [Example 174]
< 1 nM	COCC(=O)N(C)CC(=O)N(C)c1ccc2cc(-c3n[nH]c4c3CCC(C)(C)C4)[nH]c2c1 [Example 180]
2 nM	C[C@@H]1CN(CC(=O)N(C)c2ccc3cc(-c4n[nH]c5c4CCC(C)(C)C5)[nH]c3c2)C(=O)CO1 [Example 182]
1 nM	CN(C(=O)CN1CCC(C)(C)C1=O)c1ccc2cc(-c3n[nH]c4c3CCC(C)(C)C4)[nH]c2c1 [Example 183]
1 nM	CN(C(=O)CN1CC(C)(C)OCC1=O)c1ccc2cc(-c3n[nH]c4c3CCC(C)(C)C4)[nH]c2c1 [Example 184]
1 nM	CN1CCN(CC(=O)N(C)c2ccc3cc(-c4n[nH]c5c4CCC(C)(C)C5)[nH]c3c2)C1=O [Example 186]
4 nM	CC[C@@H](C(=O)N(C)c1ccc2cc(-c3n[nH]c4c3CCC(C)(C)C4)[nH]c2c1)N1CCOCC1 [Example 190]
2 nM	CC(=O)N(C)CC(=O)N(C)c1ccc2cc(-c3n[nH]c4c3CCC(C)(C)C4)[nH]c2c1 [Example 192]
2 nM	CN(CC(=O)N(C)c1ccc2cc(-c3n[nH]c4c3CCC(C)(C)C4)[nH]c2c1)C(=O)CC(C)(C)O [Example 193]
20 nM	CC(C(=O)N(C)c1ccc2cc(-c3n[nH]c4c3CCC(C)(C)C4)[nH]c2c1)N(C)C(=O)OC(C)(C)C (stereo not drawn) [Example 195]

The remaining lines, values behind:

Structure (SMILES)	IC50
CN(C(=O)[C@@H]1CCC(=O)N1C)c1ccc2cc(-c3n[nH]c4c3CCC(C)(C)C4)[nH]c2c1 [Example 151]	3 nM
CC1COCC(=O)N1C(C)C(=O)N(C)c1ccc2cc(-c3n[nH]c4c3CCC(C)(C)C4)[nH]c2c1 (stereo not drawn) [Example 152]	14 nM
CC1COCC(=O)N1C(C)C(=O)N(C)c1ccc2cc(-c3n[nH]c4c3CCC(C)(C)C4)[nH]c2c1 (stereo not drawn) [Example 153]	5 nM
CN(C(=O)C(CO)OC1CCCC1)c1ccc2cc(-c3n[nH]c4c3CCC(C)(C)C4)[nH]c2c1 (stereo not drawn) [Example 158]	5 nM
CN(C(=O)CN1C(=O)CC[C@H]1CO)c1ccc2cc(-c3n[nH]c4c3CCC(C)(C)C4)[nH]c2c1 [Example 160]	1 nM
CN(C(=O)C(C)(C)N1CCOCC1)c1ccc2cc(-c3n[nH]c4c3CCC(C)(C)C4)[nH]c2c1 [Example 161]	22 nM
CC1CCN(CC(=O)N(C)c2ccc3cc(-c4n[nH]c5c4CCC(C)(C)C5)[nH]c3c2)C1=O (stereo not drawn) [Example 162]	1 nM
CN(C(=O)CN1CC(C)(C)CC1=O)c1ccc2cc(-c3n[nH]c4c3CCC(C)(C)C4)[nH]c2c1 [Example 163]	1 nM
CN(C(=O)CN1CC(O)CC1=O)c1ccc2cc(-c3n[nH]c4c3CCC(C)(C)C4)[nH]c2c1 (stereo not drawn) [Example 164]	3 nM
CC1OCCN(CC(=O)N(C)c2ccc3cc(-c4n[nH]c5c4CCC(C)(C)C5)[nH]c3c2)C1=O (stereo not drawn) [Example 167]	1 nM
CO[C@@H](C)C(=O)N(C)c1ccc2cc(-c3n[nH]c4c3CCC(C)(C)C4)[nH]c2c1 [Example 169]	3 nM
CC(C)C(C(=O)N(C)c1ccc2cc(-c3n[nH]c4c3CCC(C)(C)C4)[nH]c2c1)N1CCOCC1 (stereo not drawn) [Example 173]	13 nM
CN(C(=O)CN1CC(C)(C)CCC1=O)c1ccc2cc(-c3n[nH]c4c3CCC(C)(C)C4)[nH]c2c1 [Example 175]	2 nM
COC1CCC(CC(=O)N(C)c2ccc3cc(-c4n[nH]c5c4CCC(C)(C)C5)[nH]c3c2)CC1 (stereo not drawn) [Example 176]	7 nM
CN(C(=O)CN1C(=O)CC[C@@H]1CO)c1ccc2cc(-c3n[nH]c4c3CCC(C)(C)C4)[nH]c2c1 [Example 177]	2 nM
CN(CC(=O)N(C)c1ccc2cc(-c3n[nH]c4c3CCC(C)(C)C4)[nH]c2c1)C(=O)OCc1ccccc1 [Example 178]	4 nM
CN(CC(=O)N(C)c1ccc2cc(-c3n[nH]c4c3CCC(C)(C)C4)[nH]c2c1)C(=O)C(C)(C)C [Example 179]	1 nM
CN(C(=O)CN1CCNC1=O)c1ccc2cc(-c3n[nH]c4c3CCC(C)(C)C4)[nH]c2c1 [Example 185]	2 nM
CN(C(=O)CN1CCCCCCC1=O)c1ccc2cc(-c3n[nH]c4c3CCC(C)(C)C4)[nH]c2c1 [Example 187]	2 nM
CC1CC(=O)N(CC(=O)N(C)c2ccc3cc(-c4n[nH]c5c4CCC(C)(C)C5)[nH]c3c2)C1 (stereo not drawn) [Example 188]	1 nM
CN(C(=O)CN1CCC(C)(C)CC1=O)c1ccc2cc(-c3n[nH]c4c3CCC(C)(C)C4)[nH]c2c1 [Example 189]	1 nM
CC[C@H](C(=O)N(C)c1ccc2cc(-c3n[nH]c4c3CCC(C)(C)C4)[nH]c2c1)N1CCOCC1 [Example 191]	7 nM
CO[C@H]1CC[C@@H](C(=O)N(C)CC(=O)N(C)c2ccc3cc(-c4n[nH]c5c4CCC(C)(C)C5)[nH]c3c2)CC1 [Example 194]	2 nM
COC[C@H]1CCC(=O)N1CC(=O)N(C)c1ccc2cc(-c3n[nH]c4c3CCC(C)(C)C4)[nH]c2c1 [Example 196]	4 nM
COC[C@@H]1CCC(=O)N1CC(=O)N(C)c1ccc2cc(-c3n[nH]c4c3CCC(C)(C)C4)[nH]c2c1 [Example 197]	2 nM
COC(=O)N(C)CC(=O)N(C)c1ccc2cc(-c3n[nH]c4c3CCC(C)(C)C4)[nH]c2c1 [Example 198]	1 nM
CC(C)C(=O)N(C)CC(=O)N(C)c1ccc2cc(-c3n[nH]c4c3CCC(C)(C)C4)[nH]c2c1 [Example 199]	2 nM
CN(CC(=O)N(C)c1ccc2cc(-c3n[nH]c4c3CCC(C)(C)C4)[nH]c2c1)C(=O)C1CC1 [Example 200]	1 nM
CN(C(=O)C1CCOC1(C)C)c1ccc2cc(-c3n[nH]c4c3CCC(C)(C)C4)[nH]c2c1 (stereo not drawn) [Example 201]	10 nM
CC(=O)N(C)[C@@H](C)C(=O)N(C)c1ccc2cc(-c3n[nH]c4c3CCC(C)(C)C4)[nH]c2c1 [Example 202]	14 nM
